From patent EP0714404B1, “ANTI-INFLAMMATORY PEPTIDES” (CURATIVE TECHNOLOGIES, INC., priority 1993, dated 1995)
Like-named read-outs stand apart in the source and are kept apart here. Residues, ends and D or L forms follow the SMILES beside them.

Assays:
[1] = acute toxicity in mice; format: in vivo; conditions: intravenous 100, 500 or 1,000 mg/kg
Procedure: Acute toxicity of CT-112 (SEQ. ID NO: 1) in mice and rats was assessed. Mice were dosed by intravenous injection with CT-112 (SEQ. ID NO: 1) at 100, 500 or 1,000 mg/kg.

[2] = tested on: leukotriene B4 (LTB4); experiment: carrageenan peritonitis, LTB4 content of peritoneal lavage fluid; format: in vivo, Mice; conditions: 60 mg/kg/day; 24 hr post-challenge
Procedure: (§1) Mice (C57BL/6UAF, females, 12 weeks old) were implanted with Alzet mini pumps set to deliver 60 mg CT-112/kg/day. Six days post-implantation, the mice were challenged with an intraperitoneal injection of 0.3 ml of carrageenan in PBS (10 mg/ml). The peritoneal cavity was lavaged with 15 ml of Hank's Balanced Salt Solution (Ca^2+- and Mg^2+-free) at 24, 48 and 72 hr post-challenge. The lavage fluid was centrifuged (500 g, 5 min), fixed with LeukoStat fixative and stained with LeukoStat staining solution. The slides were analyzed under a microscope for the different types of inflammatory cells, such as macrophages, lymphocytes and neutrophils. At the 48-hr time point, 5 control mice were also lavaged.
(§2) In a separate study, the peritoneal lavage fluid was analyzed for total leukotriene B4 (LTB4) and prostaglandin E2 (PGE2) content at 24 hr post-challenge (Griswold et al., 1991, Biochem. Pharmacol. 42(4):825-831).

[3] = tested on: Inflammatory Cell Influx; experiment: carrageenan-induced model of peritonitis, inflammatory cell influx; format: in vivo, Mice; conditions: pump 60 mg CT-112/kg/day
Procedure: as §1

[4] = tested on: Delayed Type Hypersensitivity; format: in vivo, mice
Procedure: CT-112 (SEQ. ID NO: 1) was tested for its ability to modulate the immune response in a mouse model of delayed hypersensitivity (Filipp et al., 1984, Allergy, 39: 499-507; Diezel et al., 1989 J. Invest. Dermatol. 93:322-326). The mice used in this study were 8-wk old hairless females (Jackson Laboratories). The mice were sensitized to a contact allergen (1-chloro-2,4-dinitrobenzene, DNCB) by painting the dorsothoracic region twice daily for 5 consecutive days with 50 µl of 0.5% DNCB in 75% acetone:25% vegetable oil. The animals were allowed to rest for 24 hr prior to challenge with DNCB. On the sixth day after initiation of the sensitization treatments, the animals were challenged with 50 µl of DNCB solution applied to the left ear. After 24 hrs, the ear thickness was determined and compared to the unchallenged ear.
The treatment groups were as follows: • a) PBS control; • b) Prednisone (intraperitoneal injection of 25 mg/kg, 2 hr prior to challenge); • c) 7-day pump (60 mg CT-112/kg/24 hr); • d) CT-112 (intraperitoneal injections of 60 mg/kg/injection at 3, 1, and 0.25 hr prior to challenge and 3, 6 and 21 hr post-challenge); • e) DMSO control (topical application of 50 µl at 3, 1 and 0.25 hr prior to challenge; and • f) CT-112 in DMSO (20 mg/ml, topical application of 50 µl at 3, 1, and 0.25 hr prior to challenge and 3, 6 and 21 hr post-challenge).

[5] = tested on: neutrophils; experiment: neutrophil chemotaxis to f-Met-Leu-Phe (Neuroprobe chambers); format: cell-based; conditions: fluorescence at 530 nm, 1 hr; FIGURE 3
Procedure: The ability of CT-112 (SEQ. ID NO: 1) to inhibit chemotaxis of neutrophils in response to a variety of agents was assessed using Neuroprobe chemotaxis chambers. For these assays, neutrophils were resuspended in Hank's balanced salt solution with Ca^2+ and Mg^2+ to give a 5 x 10^6 cells/ml suspension after the cells were labeled with 1',7'-bis(2-carboxyethyl)-5-(6)-carboxyfluorescein. The neutrophils were exposed to CT-112 (SEQ. ID NO: 1) for approximately 15 min prior to addition to the chemotaxis chambers. CT-112 (SEQ. ID NO: 1) was present in both the top and bottom of the chambers, and the chemoattractant, either f-Met-Leu-Phe, leukotriene B4 or interleukin-8, was added to the bottom of chamber. Cells which had migrated through the membrane were determined by fluorescence at 530 nm at 1 hr after initiation of the assay.

[6] = tested on: prostaglandin E2 (PGE2); experiment: carrageenan peritonitis, PGE2 content of peritoneal lavage fluid; format: in vivo, Mice; conditions: 60 mg/kg/day; 24 hr post-challenge
Procedure: as §1, §2

For `CC(C)[C@H](NC(=O)[C@H](CCC(N)=O)NC(=O)[C@H](CO)NC(=O)[C@@H](NC(=O)[C@@H](N)[C@@H](C)O)[C@@H](C)O)C(=O)N[C@@H](CCCNC(=N)N)C(=O)N1CCC[C@H]1C(=O)N[C@@H](CCCNC(=N)N)C(=O)O` [CT-112, Thr-Thr-Ser-Gln-Val-Arg-Pro-Arg] (H-TTSQVRPR-OH), the lesions at necropsy [1] was “No lesions were visible”, the “mean body weight or mean body weight gain” value ([1]; control vs treated) was “no statistical differences” and the clinical effects ([1]; one mouse at 500 and two at 1,000 mg/kg, day of treatment) was “Minimal transient clinical effects (hypoactivity and hypersensitivity)”. The LTB4 [2] was 16.8 ± 11.5(5) pg in peritoneal lavage, the “Absolute Cell Number Lymphocytes” value ([3]; 24 hr post carrageenan) was 16.9 ± 5.9 and the “Absolute Cell Number Macrophages” value ([3]; 24 hr post carrageenan) was 19.5 ± 10. For the same compound, the “Absolute Cell Number Neutrophils” value ([3]; 24 hr post carrageenan) was 106 ± 29, the “Absolute Cell Number Lymphocytes” value ([3]; 48 hr post carrageenan) was 12.5 ± 7.6 and the “Absolute Cell Number Macrophages” value ([3]; 48 hr post carrageenan) was 126 ± 43. For the same compound, the “Absolute Cell Number Neutrophils” value ([3]; 48 hr post carrageenan) was 134 ± 77, the “Absolute Cell Number Lymphocytes” value ([3]; 72 hr post carrageenan) was 45.1 ± 42 and the “Absolute Cell Number Macrophages” value ([3]; 72 hr post carrageenan) was 255 ± 125. For the same compound, the “Absolute Cell Number Neutrophils” value ([3]; 72 hr post carrageenan) was 48.4 ± 28, the “Thickness Difference (Left-Right)” value ([4]; 7-day pump, 60 mg CT-112/kg/24 hr) was 0.00087 ± 0.000398 in and the “Thickness Difference (Left-Right)” value ([4]; ip 60 mg/kg/injection at 3, 1, 0.25 hr prior and 3, 6, 21 hr post-challenge) was 0.00169 ± 0.000643 in. For the same compound, the “Thickness Difference (Left-Right)” value ([4]; topical, 20 mg/ml in DMSO, 50 µl at 3, 1, 0.25 hr prior and 3, 6, 21 hr post-challenge) was 0.0035 ± 0.000408 in, the “chemotactic migration of neutrophils to f-Met-Leu-Phe” value [5] was “effectively inhibited” and the PGE2 [6] was 13.1 ± 6.9(5) pg in peritoneal lavage.
